The text below walks through data of patent US20250101041A1, “POSITIVE ALLOSTERIC MODULATORS OF THE MUSCARINIC ACETYLCHOLINE RECEPTOR M4” (Vanderbilt University, priority 2022, published 2025).

Structures are written as SMILES. pEC50: −log10 of the molar value.

For data set [1] the following is noted: patients treated with AChE inhibitors such as tacrine; cited from earlier work.
The conditions of data set [2]: Alzheimer's disease patients; cited from earlier work.
The conditions of data set [3]: cited from earlier work.
In a further data set the target is T1, human mAChR M4 (Homo sapiens, UniProt P08173).
T1 construct: expressed in transfected cells; host or cells: CHO-K1 (American Type Culture Collection), stably expressing hM4 and Gqi5
T1 sequence (P08173 1-479): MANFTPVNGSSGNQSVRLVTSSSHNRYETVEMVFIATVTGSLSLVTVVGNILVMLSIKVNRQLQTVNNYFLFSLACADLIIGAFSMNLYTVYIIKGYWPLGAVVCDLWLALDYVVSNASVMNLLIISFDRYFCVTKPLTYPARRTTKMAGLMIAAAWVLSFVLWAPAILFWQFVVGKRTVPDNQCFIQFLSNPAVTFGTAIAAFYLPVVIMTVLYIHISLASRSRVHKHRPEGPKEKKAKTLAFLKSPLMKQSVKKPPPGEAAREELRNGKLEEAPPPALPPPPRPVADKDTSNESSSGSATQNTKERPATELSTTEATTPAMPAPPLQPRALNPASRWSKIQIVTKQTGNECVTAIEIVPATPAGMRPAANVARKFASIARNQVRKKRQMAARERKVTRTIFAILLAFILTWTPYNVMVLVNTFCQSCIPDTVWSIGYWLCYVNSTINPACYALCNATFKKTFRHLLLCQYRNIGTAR
As to the kind of experiment: mAChR M4 cell-based functional assay: calcium mobilization (Fluo-4, FDSS), potentiation of EC20 acetylcholine response in hM4-Gqi5 CHO-K1 cells. The following applies: human M4; for Emax at 30 µM: CHO-K1, % ACh maximum at 30 μM; for pEC50: potentiation of EC20 acetylcholine response, calcium mobilization. The procedure, abridged:
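Readout is the fluorescence-ratio rise at 1 Hz on FDSS, with PAM activity taken as concentration-dependent enhancement of the EC20 acetylcholine response, fitted four-parameter for EC50/Emax. hM4-Gqi5 CHO-K1 cells carried Fluo-4 AM dye; test compounds (11 points, 1:3) preceded EC20 acetylcholine additions at 144 s and 230 s.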

Consider `Nc1c2c(nc3ccccc13)CCCC2` [tacrine], for which the “patients with elevated liver transaminases (hepatotoxicity)” value in data set [1] was “about 30%”.
For the compound `CCCCCCOc1nsnc1C1=CCCN(C)C1` [xanomeline], in data set [2], the “psychotic behavioral symptoms such as delusions, suspiciousness, vocal outbursts, and hallucinations” value is “reduce psychotic behavioral symptoms”; the “treatment induced side effects” value is on record as “gastrointestinal effects”. Further, the catalepsy result in data set [3] (animal models) is “without causing catalepsy”. In addition, the “activity in animal models with similar profiles to known antipsychotic drugs” value in data set [3] was “active”.
By Emax is commonly meant the maximal effect, on the per cent scale that the assay sets. Usually pEC50 stands for the negative decadic logarithm of the EC50, by convention in mol/L. `COc1cc(Cl)cc(Nc2cnc3c(c2)CN(c2nn4c(=O)ccnc4cc2C)CC3)c1` [Compound 2-82, 7-(3-((3-chloro-5-methoxyphenyl)amino)-7,8-dihydro-1,6-naphthyridin-6(5H)-yl)-8-methyl-4H-pyrimido[1,2-b]pyridazin-4-one]: at human mAChR M4, the Emax at 30 µM came to 79% and the pEC50 is 6.31.
For `Cc1cc2nccc(=O)n2nc1N1CCc2ncc(-c3ccsc3C#N)cc2C1` [Compound 1-410, 3-(6-(8-methyl-4-oxo-4H-pyrimido[1,2-b]pyridazin-7-yl)-5,6,7,8-tetrahydro-1,6-naphthyridin-3-yl)thiophene-2-carbonitrile] the same measures were 82% and 6.75.
The corresponding values for `Cc1cc(=O)n2nc(N3CCc4ncc(-c5ccc(F)cc5F)cc4C3)c(C)c(C)c2n1` [Compound 1-279, 7-(3-(2,4-difluorophenyl)-7,8-dihydro-1,6-naphthyridin-6(5H)-yl)-2,8,9-trimethyl-4H-pyrimido[1,2-b]pyridazin-4-one] are 81% and 5.95.
Turning to `Cc1c(N2CCc3ncc(-c4ccc(-n5ccnc5)nc4)cc3C2)nn2c(=O)ccnc2c1C` [Compound 1-98, 7-(3-(6-(1H-imidazol-1-yl)pyridin-3-yl)-7,8-dihydro-1,6-naphthyridin-6(5H)-yl)-8,9-dimethyl-4H-pyrimido[1,2-b]pyridazin-4-one], at human mAChR M4, the maximal effect (Emax) at 30 µM came out at 86% and the pEC50 is 6.27.
On to `Cc1cc2nccc(=O)n2nc1N1CCc2ncc(-c3ccnc(C4CC4)c3)cc2C1` [Compound 1-54, 7-(3-(2-cyclopropylpyridin-4-yl)-7,8-dihydro-1,6-naphthyridin-6(5H)-yl)-8-methyl-4H-pyrimido[1,2-b]pyridazin-4-one], for which, on human mAChR M4, the maximum response (Emax) at 30 µM is 76% and the negative-log EC50 (pEC50) is 6.32.
For `Cc1c(N2CCc3ncc(-c4cncc(C#N)c4)cc3C2)nn2c(=O)cc(C(F)F)nc2c1C` [Compound 1-157, 5-(6-(2-(difluoromethyl)-8,9-dimethyl-4-oxo-4H-pyrimido[1,2-b]pyridazin-7-yl)-5,6,7,8-tetrahydro-1,6-naphthyridin-3-yl)nicotinonitrile] the same measures were 100% and 6.37.
The corresponding values for `Cc1cc2nccc(=O)n2nc1N1CCc2ncc(-c3cnn(C)c3C)cc2C1` [Compound 1-408, 7-(3-(1,5-dimethyl-1H-pyrazol-4-yl)-7,8-dihydro-1,6-naphthyridin-6(5H)-yl)-8-methyl-4H-pyrimido[1,2-b]pyridazin-4-one] are 90% and 6.59.
The corresponding values for `COCc1cc(=O)n2nc(N3CCc4ncc(-c5ccnc(C)c5)cc4C3)c(C)cc2n1` [Compound 1-361, 2-(methoxymethyl)-8-methyl-7-(3-(2-methylpyridin-4-yl)-7,8-dihydro-1,6-naphthyridin-6(5H)-yl)-4H-pyrimido[1,2-b] pyridazin-4-one] are 82% and 6.45.
For `COCc1cc(=O)n2nc(N3CCc4ncc(-c5ncc(F)cc5F)cc4C3)c(C)cc2n1` [Compound 1-382, 7-(3-(3,5-difluoropyridin-2-yl)-7,8-dihydro-1,6-naphthyridin-6(5H)-yl)-2-(methoxymethyl)-8-methyl-4H-pyrimido[1,2-b] pyridazin-4-one], on human mAChR M4, the Emax at 30 µM amounted to 79% and the negative logarithm of the EC50 (pEC50) is 6.33.
For `Cc1cc(=O)n2nc(N3CCc4ncc(-c5ccsc5)cc4C3)c(C)c(C)c2n1` [Compound 1-304, 2,8,9-trimethyl-7-(3-(thiophen-3-yl)-7,8-dihydro-1,6-naphthyridin-6(5H)-yl)-4H-pyrimido[1,2-b]pyridazin-4-one] the same measures were 89% and 6.77.
In the case of `COCc1cc(=O)n2nc(N3CCc4ncc(-c5ccc(C)o5)cc4C3)c(C)cc2n1` [Compound 1-372, 2-(methoxymethyl)-8-methyl-7-(3-(5-methylfuran-2-yl)-7,8-dihydro-1,6-naphthyridin-6(5H)-yl)-4H-pyrimido[1,2-b] pyridazin-4-one], at human mAChR M4, the Emax at 30 µM is 65% and the negative-log EC50 (pEC50) is 6.53.
